Experimental data as given in PubChem BioAssay (NCI).
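Exposure lasted 48 hours, with cells grown in 96-well plates and compounds tested at five concentrations. TGI denotes the concentration required for complete inhibition of growth.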

How the values were obtained:
Test in all cases: DTP human tumour cell line panel, 48 h
NCI-H522 lung = system: NCI-H522 lung
T-47D breast = system: T-47D breast
HCC-2998 colon = system: HCC-2998 colon
IGROV1 ovarian = system: IGROV1 ovarian
SF-268 CNS = system: SF-268 CNS
NCI-H460 lung = system: NCI-H460 lung
UACC-257 melanoma = system: UACC-257 melanoma
MDA-N = system: MDA-N
ACHN renal = system: ACHN renal
MOLT-4 leukemia = system: MOLT-4 leukemia
PC-3 prostate = system: PC-3 prostate
SK-MEL-28 melanoma = system: SK-MEL-28 melanoma
K-562 leukemia = system: K-562 leukemia
LOX IMVI melanoma = system: LOX IMVI melanoma
M14 melanoma = system: M14 melanoma
BT-549 breast = system: BT-549 breast
MDA-MB-231 breast = system: MDA-MB-231 breast
OVCAR-5 ovarian = system: OVCAR-5 ovarian
SF-295 CNS = system: SF-295 CNS
SK-MEL-5 melanoma = system: SK-MEL-5 melanoma
RXF 393 renal = system: RXF 393 renal
OVCAR-3 ovarian = system: OVCAR-3 ovarian
KM12 colon = system: KM12 colon
CCRF-CEM leukemia = system: CCRF-CEM leukemia
SW-620 colon = system: SW-620 colon
SK-MEL-2 melanoma = system: SK-MEL-2 melanoma
NCI-H23 lung = system: NCI-H23 lung
A549 NSCLC = system: A549 NSCLC
HS 578T breast = system: HS 578T breast
HCT-15 colon = system: HCT-15 colon
NCI-H226 lung = system: NCI-H226 lung
EKVX NSCLC = system: EKVX NSCLC
UACC-62 melanoma = system: UACC-62 melanoma
RPMI-8226 leukemia = system: RPMI-8226 leukemia
HL-60(TB) leukemia = system: HL-60(TB) leukemia
U251 CNS = system: U251 CNS
DU-145 prostate = system: DU-145 prostate
HOP-62 NSCLC = system: HOP-62 NSCLC
HCT-116 colon = system: HCT-116 colon
UO-31 renal = system: UO-31 renal
CAKI-1 renal = system: CAKI-1 renal
OVCAR-4 ovarian = system: OVCAR-4 ovarian
HT29 colon = system: HT29 colon
SR leukemia = system: SR leukemia
SF-539 CNS = system: SF-539 CNS
786-0 renal = system: 786-0 renal
SNB-19 CNS = system: SNB-19 CNS
SN12C renal = system: SN12C renal
HOP-92 NSCLC = system: HOP-92 NSCLC
A498 renal = system: A498 renal
MALME-3M melanoma = system: MALME-3M melanoma
OVCAR-8 ovarian = system: OVCAR-8 ovarian
TK-10 renal = system: TK-10 renal
MCF7 breast = system: MCF7 breast

Measured: TGI

COc1ccc(-c2c3c([nH]c(=S)c2C#N)CC(C)(C)CC3=O)cc1
> 100 µM: all assays above
